The values that follow come from patent US20240238212A1, “LIPID COMPOUNDS AND LIPID NANOPARTICLE COMPOSITIONS” (SUZHOU ABOGEN BIOSCIENCES CO., LTD., priority 2022, published 2024).

SMILES strings stand for the structures.

A short description of data set [1]: Lipid nanoparticle size and polydispersity by dynamic light scattering. The format is physicochemical. The following applies: LNP comprising the compound, hEPO mRNA; for Size (nm): cationic lipid/DSPC/cholesterol/PEG-lipid 50:10:38.5:1.5. The method, then:
(§1) Briefly, a cationic lipid provided herein, DSPC, cholesterol, and PEG-lipid were solubilized in ethanol at a molar ratio of 50:10:38.5:1.5, and mRNA were diluted in 10 to 50 mM citrate buffer, pH=4. The LNPs were prepared at a total lipid to mRNA weight ratio of approximately 10:1 to 30:1 by mixing the ethanolic lipid solution with the aqueous mRNA solution at a volume ratio of 1:3 using a microfluidic apparatus, total flow rate ranging from 9-30 mL/min. Ethanol were thereby removed and replaced by DPBS using dialysis. Finally, the lipid nanoparticles were filtered through a 0.2 μm sterile filter.
(§2) Lipid nanoparticle size were determined by dynamic light scattering using a Malvern Zetasizer Nano ZS (Malvern UK) using a 173° backscatter detection mode. The encapsulation efficiency of lipid nanoparticles were determined using a Quant-it Ribogreen RNA quantification assay kit (Thermo Fisher Scientific, UK) according to the manufacturer's instructions.

Data set [2] can be described thus: Encapsulation efficiency of lipid nanoparticles (Quant-it Ribogreen RNA assay). The class given is physicochemical. To be noted: LNP comprising the compound, hEPO mRNA. As for the experimental part:
as §1, §2

Data set [3] concerns human erythropoietin (hEPO) mRNA expression. Briefly: Animal Study 1: hEPO mRNA LNPs i.v. in mice, serum EPO by ELISA. The class given is in vivo. The following applies: female ICR mice, 0.5 mg/kg tail vein injection, blood e.g. 6 hours post administration; relative to MC3 LNP. The method, then:
Lipid nanoparticles comprising compounds in the following table encapsulating human erythropoietin (hEPO) mRNA were systemically administered to 6-8 week old female ICR mice (Xipuer-Bikai, Shanghai) at 0.5 mg/kg dose by tail vein injection and mice blood were sampled at specific time points (e.g., 6 hours) post administration. In addition to the aforementioned tested groups, lipid nanoparticles comprising dilinoleylmethyl-4-dimethylaminobutyrate (DLin-MC3-DMA, usually abbreviated to MC3) encapsulating hEPO mRNA were similarly administered at the same dose to age and gender comparative groups of mice as a positive control.
Mice were euthanized by CO2 overdoses after the last sampling time point. Serum were separated from total blood by centrifugation at 5000 g for 10 minutes at 4 T, snap-frozen and stored at −80 T for analysis. ELISA assay were carried out using a commercial kit (DEP00, R&D systems) according to manufacturer's instructions.
Characteristics of tested lipid nanoparticles, including EPO expression levels over MC3 measured from the tested group are listed in the table below.
A general note: An ELISA detects its analyte on a solid surface through an enzyme-linked reagent.

Data set [4] in a line: Lipid clearance study: lipid remaining in liver tissue by LC-MS/MS. The following applies: mouse liver; for % Dose Remaining in Liver Tissue, 6 h: 6 h after 0.5 mg/kg i.v. bolus dose mRNA; for % Dose Remaining in Liver Tissue, 24 h: 24 h after 0.5 mg/kg i.v. bolus dose mRNA; for % Dose Remaining in Liver Tissue, 48 h: 48 h after 0.5 mg/kg i.v. bolus dose mRNA.
Experimental: LNPs were injected into mice via the tail vein (ICR female, IV, 0.5 mg mRNA/kg), then mice were anesthetized under carbon dioxide at different time (e.g., 6 h, 24 h, and 48 h) after administration and sacrificed via cardiac puncture. Liver tissue were collected immediately, and then washed by ice-cold saline. Liver samples were weighed and homogenized in ice water bath by adding pre-chilled 20% methanol-water (v/v) at 2˜8° C. with the ratio of 1:5 (w/v). The homogenized tissue samples were stored in −90˜−60° C. freezer prior to analysis.
All liver tissue homogenate samples were allowed to thaw at room temperature. An aliquot of 50 μL of sample was added with 50 μL MgCl2 (2M), then added with ACN which contains of Verapamil, 5 ng mL-1 and Glibenclamide, 50 ng mL-1 and Diclofenac, 200 ng mL^−1 and Tolbutamide, 200 ng mL^−1 for protein precipitation, then centrifuged at 13000 rpm for 8 min. Then 100 μL of supernatant was added with 100 μL water, then vortexed well. An aliquot of 5 μL of the mixture was injected into the LC-MS/MS system.
Data set [5] in a line: Apparent pKa of LNP formulations (TNS fluorescence assay). The format is physicochemical. To be noted: LNP formulation, TNS assay (Table 2). As for the experimental part: As reported in literature, the apparent pKa of LNP formulations correlates with the delivery efficiency of LNPs for nucleic acids in vivo. The apparent pKa of each formulation was determined using an assay based on fluorescence of 2-(p-toluidino)-6-napthalene sulfonic acid (TNS). LNP formulations comprising of cationic lipid/DSPC/cholesterol/DMG-PEG (50/10/38.5/1.5 mol %) in PBS were prepared as described above. TNS was prepared as a 300 μM stock solution in distilled water. LNP formulations were diluted to 0.1 mg/mL total lipid in 3 mL of buffered solutions containing 50 mM sodium citrate, 50 mM sodium phosphate, 50 mM sodium borate, and 30 mM sodium chloride where the pH ranged from 3 to 9. An aliquot of the TNS solution was added to give a final concentration of […] and following vortex mixing fluorescence intensity was measured at room temperature in a Molecular Devices Spectramax iD3 spectrometer using excitation and mission wavelengths of 325 nm and 435 nm. A sigmoidal best fit analysis was applied to the fluorescence data and the pKa value was measured as the pH giving rise to half-maximal fluorescent intensity.

In the case of `CCCCCCCC(=O)OCC(CCCCN(CCCCC(COC(=O)CCCCCCC)COC(=O)CCCCCCC)CCOCCO)COC(=O)CCCCCCC` [Compound 5], in data set [1], the Polydispersity is given as 0.073 and the “Size (nm)” value is reported as 82.87 nm. This compound also yielded an Encapsulation efficiency in data set [2] of 89.49%. The “EPO expression over MC3” value in data set [3] is “A (≥2)”. In data set [4], the “% Dose Remaining in Liver Tissue, 6 h” value stood at 2.646%; the “% Dose Remaining in Liver Tissue, 24 h” value is listed as 0.098%; the “% Dose Remaining in Liver Tissue, 48 h” value worked out at 0%.
`CCCCCCCCC(CCCCCC)CNC(=O)CCCCCN(CCO)CCCCC(COC(=O)CCCCCCC)COC(=O)CCCCCCC` (stereo not shown) [Compound 11]: in data set [1], the Polydispersity amounted to 0.082 and the “Size (nm)” value was found to be 59.17 nm. The same compound returned an Encapsulation efficiency in data set [2] of 85.63%. Besides, in data set [3], the “EPO expression over MC3” value was “D (<0.1)”. Also, in data set [4], the “% Dose Remaining in Liver Tissue, 6 h” value was 3.1%; the “% Dose Remaining in Liver Tissue, 24 h” value is 0.537%; the “% Dose Remaining in Liver Tissue, 48 h” value is 0.139%.
As to `CCCCCCCCC(CCCCCC)CNC(=O)CCCCCN(CCCCC(COC(=O)CCCCCCC)COC(=O)CCCCCCC)CCC1(O)CCCCC1` (stereo not shown) [Compound 63], in data set [1], the Polydispersity stood at 0.159 and the “Size (nm)” value amounted to 130.62 nm. This compound also came in with an Encapsulation efficiency in data set [2] of 90.10%. In data set [5], the “Apparent pKa” value came to 6.297. Further, in data set [3], the “EPO expression over MC3” value was “C (≥0.1 and <1)”.
As to `CCCCCCCC(=O)OCC(C)(COC(=O)CCCCCCC)COC(=O)CCCCCN(CCO)CCCCCC(=O)OCC(C)(COC(=O)CCCCCCC)COC(=O)CCCCCCC` [Compound 64], in data set [1], the Polydispersity was found to be 0.094 and the “Size (nm)” value was found to be 83.57 nm. Besides, the Encapsulation efficiency in data set [2] amounted to 94.94%. In addition, in data set [5], the “Apparent pKa” value is recorded as 6.575. In data set [3], the “EPO expression over MC3” value is “A (≥2)”.
Turning to `CCCCCCCC(=O)OCC(COC(=O)CCCCCCC)COC(=O)CCCCCCCN(CCO)CCCCCCCC(=O)OCC(COC(=O)CCCCCCC)COC(=O)CCCCCCC` [Compound 65], in data set [1], the Polydispersity came to 0.040 and the “Size (nm)” value came to 62.56 nm. The same compound had an Encapsulation efficiency in data set [2] of 96.01%. In addition, the “Apparent pKa” value in data set [5] came to 6.338. In data set [3], the “EPO expression over MC3” value was “A (≥2)”.
On the same counts, the results for `CCCCCCCC(=O)OCC(COC(=O)CCCCCCC)COC(=O)CCCCCN(CCCO)CCCCCC(=O)OCC(COC(=O)CCCCCCC)COC(=O)CCCCCCC` [Compound 66] are 0.010, 113.3 nm, 95.46%, 6.379 and “A (≥2)”.
On the same counts, the results for `CCCCCCCC(=O)OCC(COC(=O)CCCCCCC)COC(=O)CCCCCN(CCCCO)CCCCCC(=O)OCC(COC(=O)CCCCCCC)COC(=O)CCCCCCC` [Compound 67] are 0.026, 87.2 nm, 94.95%, 6.705 and “A (≥2)”.
`CCCCCCCC(=O)OCC(COC(=O)CCCCCCC)COC(=O)CCCCCN(CCCCCO)CCCCCC(=O)OCC(COC(=O)CCCCCCC)COC(=O)CCCCCCC` [Compound 68]: in data set [1], the Polydispersity came to 0.010 and the “Size (nm)” value is 100.16 nm. Moreover, the Encapsulation efficiency in data set [2] was found to be 94.91%. In addition, in data set [5], the “Apparent pKa” value is 6.582. For the same compound, in data set [3], the “EPO expression over MC3” value is on record as “A (≥2)”.
For `CCCCCCCC(=O)OCC(COC(=O)CCCCCCC)COC(=O)CCCCCN(CCCCCCO)CCCCCC(=O)OCC(COC(=O)CCCCCCC)COC(=O)CCCCCCC` [Compound 69], in data set [1], the Polydispersity was 0.012 and the “Size (nm)” value came to 106.71 nm. Besides, in data set [2], the Encapsulation efficiency was 94.81%. Besides, the “Apparent pKa” value in data set [5] was found to be 6.271. Besides, the “EPO expression over MC3” value in data set [3] is “B (≥1 and <2)”.
For `CCCCCCCC(=O)OCC(COC(=O)CCCCCCC)COC(=O)CCCCCN(CCCCCCCO)CCCCCC(=O)OCC(COC(=O)CCCCCCC)COC(=O)CCCCCCC` [Compound 70], in data set [1], the Polydispersity was 0.037 and the “Size (nm)” value was 67.7 nm. This compound showed an Encapsulation efficiency in data set [2] of 95.70%. Also, the “Apparent pKa” value in data set [5] is 6.171. In addition, the “EPO expression over MC3” value in data set [3] was “B (≥1 and <2)”.
For the compound `CCCCCCCCCC(=O)OCC(COC(=O)CCCCCCCCC)COC(=O)CCCCCN(CCO)CCCCCC(=O)OCC(COC(=O)CCCCCCCCC)COC(=O)CCCCCCCCC` [Compound 71], in data set [1], the Polydispersity amounted to 0.098 and the “Size (nm)” value worked out at 68.05 nm. For the same compound, the Encapsulation efficiency in data set [2] turned out to be 96.34%. For the same compound, the “Apparent pKa” value in data set [5] is 6.599. Moreover, in data set [3], the “EPO expression over MC3” value is “A (≥2)”.
On to `CCCCCCCCCCC(=O)OCC(COC(=O)CCCCCCCCCC)COC(=O)CCCCCN(CCO)CCCCCC(=O)OCC(COC(=O)CCCCCCCCCC)COC(=O)CCCCCCCCCC` [Compound 72], for which, in data set [1], the Polydispersity is 0.111 and the “Size (nm)” value is 72.07 nm. This compound also showed an Encapsulation efficiency in data set [2] of 96.28%. Moreover, the “Apparent pKa” value in data set [5] amounted to 6.728. Further, the “EPO expression over MC3” value in data set [3] is on record as “A (≥2)”.
Turning to `CCCCCCCCCCCC(=O)OCC(COC(=O)CCCCCCCCCCC)COC(=O)CCCCCN(CCO)CCCCCC(=O)OCC(COC(=O)CCCCCCCCCCC)COC(=O)CCCCCCCCCCC` [Compound 73], in data set [1], the Polydispersity is recorded as 0.010 and the “Size (nm)” value was found to be 71.34 nm. In data set [2], this compound registered an Encapsulation efficiency of 96.37%. Moreover, the “Apparent pKa” value in data set [5] is on record as 6.536. The “EPO expression over MC3” value in data set [3] was “C (≥0.1 and <1)”.
For `CCCCCCCCCCCCC(=O)OCC(COC(=O)CCCCCCCCCCCC)COC(=O)CCCCCN(CCO)CCCCCC(=O)OCC(COC(=O)CCCCCCCCCCCC)COC(=O)CCCCCCCCCCCC` [Compound 74], in data set [1], the Polydispersity stood at 0.012 and the “Size (nm)” value is recorded as 66.23 nm. For the same compound, the Encapsulation efficiency in data set [2] worked out at 94.82%. Further, the “Apparent pKa” value in data set [5] came to 6.283. Besides, the “EPO expression over MC3” value in data set [3] is “C (≥0.1 and <1)”.
Turning to `CCCCCCCCC(=O)OCC(COC(=O)CCCCCCCC)COC(=O)CCCCCN(CCO)CCCCCC(=O)OCC(COC(=O)CCCCCCCC)COC(=O)CCCCCCCC` [Compound 75], in data set [1], the Polydispersity came to 0.074 and the “Size (nm)” value stood at 66.83 nm. The compound further returned an Encapsulation efficiency in data set [2] of 93.47%. For the same compound, the “Apparent pKa” value in data set [5] was determined as 6.703. Further, the “EPO expression over MC3” value in data set [3] is recorded as “A (≥2)”.
On to `CCCCCCCC(=O)OCC(CC)(COC(=O)CCCCCCC)COC(=O)CCCCCN(CCO)CCCCCC(=O)OCC(CC)(COC(=O)CCCCCCC)COC(=O)CCCCCCC` [Compound 82], for which, in data set [1], the Polydispersity is 0.010 and the “Size (nm)” value is on record as 69.37 nm. The Encapsulation efficiency in data set [2] amounted to 95.75%. Besides, the “Apparent pKa” value in data set [5] is on record as 6.342. Moreover, in data set [3], the “EPO expression over MC3” value is listed as “A (≥2)”.
Taken in the same sequence, the figures for `CCCCCCCCC(CCCCCC)COC(=O)CCCCCN(CCO)CCCCCC(=O)OCC(C)(COC(=O)CCCCCCC)COC(=O)CCCCCCC` (stereo not shown) [Compound 83] were 0.051, 67.54 nm, 94.79%, 6.547 and “A (≥2)”.
On the same counts, the results for `CCCCCCCCC(CCCCCC)COC(=O)CCCCCN(CCO)CCCCCC(=O)OCC(CC)(COC(=O)CCCCCCC)COC(=O)CCCCCCC` (stereo not shown) [Compound 84] are 0.022, 72.82 nm, 94.81%, 6.355 and “A (≥2)”.
